Tested on: Candida albicans
Assay: In vitro anti-fungal activity: minimum inhibitory concentration (m.i.c.) on agar plates
Assay type: cell-based
Settings: geometrical mean of results against a panel of 12 strains of Candida albicans; agar plates incubated for 48 hours at 37°C

First: C=CC(C)C(O)(Cn1ccnc1)c1ccc(Cl)cc1Cl (single isomer, unassigned) [Example 3a, 2-(2,4-Dichlorophenyl)-1-(1-imidazolyl)-3-methyl-pent-4-en-2-ol]
Second: CC(C)C(O)(Cn1ccnc1)c1ccc(Cl)cc1Cl (stereo not shown) [Example 8]
The Mean m.i.c. of the first is lower: 18.0 for the first, 21.0 for the second.

First: C=CC(C)C(O)(Cn1ccnc1)c1ccc(Cl)cc1Cl (single isomer, unassigned) [Example 3b, 2-(2,4-Dichlorophenyl)-1-(1-imidazolyl)-3-methyl-pent-4-en-2-ol]
Second: CCC(C)C(O)(Cn1ccnc1)c1ccc(Cl)cc1Cl (stereo not shown) [Example 4, 2-(2,4-Dichlorophenyl)-1-(1-imidazolyl)-3-methyl-pentan-2-ol]
The Mean m.i.c. of the first is lower: 11.0 for the first, 12.0 for the second.

First: C=CCC(O)(Cn1ccnc1)c1ccc(Cl)cc1Cl (stereo not shown) [Example 1, 2-(2,4-Dichlorophenyl)-1-(1-imidazolyl)-pent-4-en-2-ol]
Second: C=CCCC(O)(Cn1ccnc1)c1ccc(Cl)cc1Cl (stereo not shown) [Example 11]
The Mean m.i.c. of the first is higher: 22.0 for the first, 6.8 for the second.

First: CCCC(O)(Cn1ccnc1)c1ccc(Cl)cc1Cl (stereo not shown) [Example 2, 2-(2,4-Dichlorophenyl)-1-(1-imidazolyl)-pentan-2-ol]
Second: CCCCC(O)(Cn1ccnc1)c1ccc(Cl)cc1Cl (stereo not shown) [Example 6]
The Mean m.i.c. of the first is higher: 12.5 for the first, 3.8 for the second.

First: CCC(O)(Cn1ccnc1)c1ccc(Cl)cc1Cl (stereo not shown) [Example 5, 2-(2,4-dichlorophenyl)-1-(1-imidazolyl)-butan-2-ol]
Second: CC(C)CC(O)(Cn1ccnc1)c1ccc(Cl)cc1Cl (stereo not shown) [Example 16]
The Mean m.i.c. of the first is higher: 21.0 for the first, 5.6 for the second.

First: CC(C)(C)C(O)(Cn1ccnc1)c1ccc(Cl)cc1Cl (stereo not shown) [Example 7]
Second: CC(C)CCC(O)(Cn1ccnc1)c1ccc(Cl)cc1Cl (stereo not shown) [Example 18]
The Mean m.i.c. of the first is higher: 11.0 for the first, 3.8 for the second.

First: CCCCCC(O)(Cn1ccnc1)c1ccc(Cl)cc1Cl (stereo not shown) [Example 9]
Second: CCCCCCC(O)(Cn1ccnc1)c1ccc(Cl)cc1Cl (stereo not shown) [Example 10, 2-(2,4-dichlorophenyl)-1-(1-imidazolyl)-octan-2-ol]
The Mean m.i.c. of the first is higher: 5.2 for the first, 3.1 for the second.

Compared with `OC(CC1CC1)(Cn1ccnc1)c1ccc(Cl)cc1Cl` (stereo not shown) [Example 15], `C=CCCCC(O)(Cn1ccnc1)c1ccc(Cl)cc1Cl` (stereo not shown) [Example 17] is higher in Mean m.i.c.: 6.3 for the first, 8.4 for the second.

First: CCCCCCCC(O)(Cn1ccnc1)c1ccc(Cl)cc1Cl (stereo not shown) [Example 19]
Second: CCCCC(O)(Cn1ccnc1)c1ccccc1Cl (stereo not shown) [Example 21, 2-(2-Chlorophenyl)-1-(1-imidazolyl)-hexan-2-ol]
The Mean m.i.c. of the first is lower: 5.6 for the first, 18.0 for the second.

`CCCCC(O)(Cn1ccnc1)c1ccc(Cl)cc1` (stereo not shown) [Example 20, 2-(4-Chlorophenyl)-1-(1-imidazolyl)-hexan-2-ol] was tested, and the Mean m.i.c. was 38.0.

Source: EP0023103A1, “Antifungal imidazole derivatives, process for their preparation and pharmaceutical compositions thereof” (Pfizer Limited, priority 1979, dated 1981)
